Test results published in patent US20250230193A1, “CYCLIC COMPOUND HAVING SELECTIVE KRAS INHIBITORY EFFECT ON HRAS AND NRAS” (CHUGAI SEIYAKU KABUSHIKI KAISHA, priority 2022, published 2025).
Where a SMILES comes first, the peptide text is derived from it. Bridges are numbered along the chain shown (N, C = ends). [ ]: non-standard residue; d: D form. The star is where a group is joined. hPhe(3-Cl-4-CF3) = N[C@@H](CCc1ccc(C(F)(F)F)c(Cl)c1)C(=O)O; NPrPhe(4-CF3) = CCCN[C@@H](Cc1ccc(C(F)(F)F)cc1)C(=O)O; NMeGly(cPent) = CN[C@H](C(=O)O)C1CCCC1; Hyp = O=C(O)[C@@H]1C[C@@H](O)CN1; NMeL = CN[C@@H](CC(C)C)C(=O)O; Morpholide = C1CN(*)CCO1; Ac4c = NC1(C(=O)O)CCC1; Sar = CNCC(=O)O

Experiments:
[1] = target: GDP-bound NRAS wild-type protein (Homo sapiens, UniProt P01111); assay: Binding to NRAS by surface plasmon resonance (SPR), Single Cycle Kinetics; settings: for NRAS/KRAS (ratio of KD value with respect to NRAS to KD value with respect to KRAS): GDP-bound NRAS wild-type vs GDP-bound KRAS wild-type; for NRAS/KRAS (ratio of KD value with respect to GDP-bound NRAS wild-type protein to KD value with respect to KRAS): class symbols
Sequence of GDP-bound NRAS wild-type protein (P01111 whole entry): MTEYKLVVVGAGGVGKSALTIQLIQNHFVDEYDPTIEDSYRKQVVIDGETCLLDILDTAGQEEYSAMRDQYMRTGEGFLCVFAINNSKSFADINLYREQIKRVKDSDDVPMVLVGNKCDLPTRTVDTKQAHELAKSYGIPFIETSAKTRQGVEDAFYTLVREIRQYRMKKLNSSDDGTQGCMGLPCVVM

[2] = target: GDP-bound HRAS wild-type protein (Homo sapiens, UniProt P01112); assay: Binding to HRAS by surface plasmon resonance (SPR), Single Cycle Kinetics; settings: for HRAS/KRAS (ratio of KD value with respect to HRAS to KD value with respect to KRAS): GDP-bound HRAS wild-type vs GDP-bound KRAS wild-type; for HRAS/KRAS (ratio of KD value with respect to GDP-bound HRAS wild-type protein to KD value with respect to KRAS): class symbols
Sequence of GDP-bound HRAS wild-type protein (P01112 whole entry): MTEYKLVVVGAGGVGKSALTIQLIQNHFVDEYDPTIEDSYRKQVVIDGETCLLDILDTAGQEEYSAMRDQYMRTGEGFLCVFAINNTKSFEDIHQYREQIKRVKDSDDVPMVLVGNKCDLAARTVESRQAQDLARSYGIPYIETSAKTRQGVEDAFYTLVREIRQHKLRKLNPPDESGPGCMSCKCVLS

**Q.** With `CCCN1C(=O)CN(C)C(=O)CN(C)C(=O)[C@H]([C@@H](C)CC)NC(=O)[C@H](CC(C)C)N(C)C(=O)C[C@@H](C(=O)N2CCOCC2)NC(=O)[C@H](C2CCCC2)N(C)C(=O)C2(CCC2)NC(=O)[C@@H]2C[C@@H](OCC)CN2C(=O)[C@H](CCc2ccc(C(F)(F)F)c(Cl)c2)NC(=O)CN(C)C(=O)[C@@H]1Cc1ccc(C(F)(F)F)cc1` [PP0324] ([NMeL]I[Sar][Sar][NPrPhe(4-CF3)][Sar][hPhe(3-Cl-4-CF3)][Hyp](Et)[Ac4c][NMeGly(cPent)]D-Morpholide; lactam N-11) as the compound, how does the “NRAS/KRAS (ratio of KD for GDP-bound NRAS wild-type to KD for KRAS)” value ([1]; KD ratio NRAS/KRAS, SPR) read?
**A.** B (a compound having 3 or more and less than 10 is denoted as B)

**Q.** And the “HRAS/KRAS (ratio of KD for GDP-bound HRAS wild-type to KD for KRAS)” value ([2]; KD ratio HRAS/KRAS, SPR)?
**A.** B (a compound having 3 or more and less than 10 is denoted as B)

**Q.** How did the “NRAS/KRAS (ratio of KD value with respect to NRAS to KD value with respect to KRAS)” value ([1]; KD ratio, SPR) turn out when `CCO[C@@H]1C[C@H]2C(=O)NC3(CCC3)C(=O)N(C)[C@@H](C3CCCC3)C(=O)N(C)[C@H](C(=O)N(C)C)CC(=O)N(C)[C@@H](Cc3ccccc3)C(=O)N[C@@H]([C@@H](C)CC)C(=O)N(C)CC(=O)N(C)[C@H]3CCCCCN(C3=O)[C@@H](Cc3ccc(F)cc3)C(=O)N(C)CC(=O)N[C@@H](CCc3cc(F)c(C(F)(F)F)c(F)c3)C(=O)N2C1` [PP1195] was run?
**A.** B (a compound having 3 or more and less than 10 is denoted as B)

**Q.** And the “HRAS/KRAS (ratio of KD value with respect to HRAS to KD value with respect to KRAS)” value ([2]; KD ratio, SPR)?
**A.** B (a compound having 3 or more and less than 10 is denoted as B)

**Q.** Which results are given for `CC[C@H](C)[C@@H]1NC(=O)[C@H](CC)N(C)C(=O)C[C@@H](C(=O)N(C)C)N(C)C(=O)[C@H](C2CCCC2)N(C)C(=O)C2(CCC2)NC(=O)[C@@H]2C[C@H](OC)CN2C(=O)[C@H](CCc2cc(F)c(C(F)(F)F)c(F)c2)NC(=O)CN(C)C(=O)[C@H](Cc2ccc(C(F)(F)F)cc2)N2CC/C=C\C[C@@H](C2=O)N(C)C(=O)CN(C)C1=O` [PP1128]?
**A.** NRAS/KRAS (ratio of KD value with respect to NRAS to KD value with respect to KRAS) ([1]; KD ratio, SPR): AA (a compound having 20 or more is denoted as AA); HRAS/KRAS (ratio of KD value with respect to HRAS to KD value with respect to KRAS) ([2]; KD ratio, SPR): A (a compound having 10 or more and less than 20 is denoted as A)

**Q.** `CC[C@H](C)[C@@H]1NC(=O)[C@H](C2CC2)N(C)C(=O)C[C@@H](C(=O)N(C)CC)N(C)C(=O)[C@H](C2CCCC2)N(C)C(=O)C2(CCC2)NC(=O)[C@@H]2C[C@H](C)CN2C(=O)[C@H](CCc2cc(F)c(C(F)(F)F)c(F)c2)NC(=O)CN(C)C(=O)[C@H](Cc2ccc(C(F)(F)F)cc2)N2CC/C=C\C[C@@H](C2=O)N(C)C(=O)CN(C)C1=O` [PP2080] was tested. Which “NRAS/KRAS (ratio of KD value with respect to NRAS to KD value with respect to KRAS)” value ([1]; SPR) did it give?
**A.** A (a compound having 10 or more and less than 20 is denoted as A)

**Q.** What about the “HRAS/KRAS (ratio of KD value with respect to HRAS to KD value with respect to KRAS)” value ([2]; SPR) of the same compound?
**A.** A (a compound having 10 or more and less than 20 is denoted as A)

**Q.** Which results are given for `CCO[C@@H]1C[C@H]2C(=O)NC3(CC(C)(C)C3)C(=O)N(C)[C@@H](C(CC)CC)C(=O)N(C)[C@H](C(=O)N(C)C)CC(=O)N(C)[C@@H](CC)C(=O)N[C@@H]([C@@H](C)CC)C(=O)N(C)CC(=O)N(C)[C@H]3C/C=C\CCN(C3=O)[C@@H](Cc3ccc(C)cc3)C(=O)N(C)CC(=O)N[C@@H](CCc3ccc(C(F)(F)F)c(Cl)c3)C(=O)N2C1` [PP2154]?
**A.** NRAS/KRAS (ratio of KD value with respect to NRAS to KD value with respect to KRAS) ([1]; SPR): A (a compound having 10 or more and less than 20 is denoted as A); HRAS/KRAS (ratio of KD value with respect to HRAS to KD value with respect to KRAS) ([2]; SPR): A (a compound having 10 or more and less than 20 is denoted as A)

**Q.** With `CCC[C@H]1C(=O)N[C@@H]([C@@H](C)CC)C(=O)N(C)CC(=O)N(C)[C@H]2C/C=C\CCN(C2=O)[C@@H](Cc2ccc(C(F)(F)F)cc2)C(=O)N(C)CC(=O)N[C@@H](CCc2ccc3c(C)c(C)n(C)c3c2)C(=O)N2C[C@H](OCC)C[C@H]2C(=O)NC2(CC(C)(C)C2)C(=O)N(C)[C@@H](C(CC)CC)C(=O)N(C)[C@H](C(=O)N(C)C)CC(=O)N1C` [PP2904] as the compound, how does the “NRAS/KRAS (ratio of KD value with respect to GDP-bound NRAS wild-type protein to KD value with respect to KRAS)” value ([1]; KD ratio NRAS/KRAS) read?
**A.** AA (a compound having 20 or more is denoted as AA)

**Q.** What about the “HRAS/KRAS (ratio of KD value with respect to GDP-bound HRAS wild-type protein to KD value with respect to KRAS)” value ([2]; KD ratio HRAS/KRAS) of the same compound?
**A.** A (a compound having 10 or more and less than 20 is denoted as A)

**Q.** How did the “NRAS/KRAS (ratio of KD value with respect to GDP-bound NRAS wild-type protein to KD value with respect to KRAS)” value ([1]; KD ratio NRAS/KRAS) turn out when `CCCC[C@H]1C(=O)N[C@@H]([C@@H](C)CC)C(=O)N(C)CC(=O)N(C)[C@H]2C/C=C\CCN(C2=O)[C@@H](Cc2ccc(C(F)(F)F)cc2)C(=O)N(C)CC(=O)N[C@@H](CCc2cc(F)c(C(F)(F)F)c(F)c2)C(=O)N2C[C@H](OCC)C[C@H]2C(=O)NC2(CC(C)(C)C2)C(=O)N(C)[C@@H](C2CCCC2)C(=O)N(C)[C@H](C(=O)N(C)CC)CC(=O)N1C` [PP2806] was run?
**A.** A (a compound having 10 or more and less than 20 is denoted as A)

**Q.** And the “HRAS/KRAS (ratio of KD value with respect to GDP-bound HRAS wild-type protein to KD value with respect to KRAS)” value ([2]; KD ratio HRAS/KRAS)?
**A.** A (a compound having 10 or more and less than 20 is denoted as A)
